# ChEMBL document CHEMBL3045272, “Synthesis and fungicidal activities of novel bis(trifluoromethyl)phenyl-based strobilurins” (J Agric Food Chem, 2008)
# Key:
# [1] = system: Blumeria graminis; assay: Fungicidal activity against Blumeria graminis infected compound pre-treated wheat plants assessed as disease preventive activity at 500 ppm measured after 1 or 2 weeks; type: functional
# [2] = system: Blumeria graminis; assay: Fungicidal activity against Blumeria graminis infected compound pre-treated wheat plants assessed as disease preventive activity at 100 ppm measured after 1 or 2 weeks; type: functional
# [3] = system: Blumeria graminis; assay: Fungicidal activity against Blumeria graminis infected compound pre-treated wheat plants assessed as disease preventive activity at 3.1 ppm measured after 1 or 2 weeks; type: functional
# [4] = system: Blumeria graminis; assay: Fungicidal activity against Blumeria graminis infected compound pre-treated wheat plants assessed as disease preventive activity at 6.2 ppm measured after 1 or 2 weeks; type: functional
# [5] = system: Blumeria graminis; assay: Fungicidal activity against Blumeria graminis infected compound pre-treated wheat plants assessed as disease preventive activity at 1.5 ppm measured after 1 or 2 weeks; type: functional
# [6] = system: Podosphaera fuliginea; assay: Fungicidal activity against Podosphaera fuliginea infected cucumber plants exposed to compound treatment 1 day post infection assessed as disease curative activity measured after 1 or 2 weeks; type: functional, organism-based
# [7] = system: Podosphaera fuliginea; assay: Fungicidal activity against Podosphaera fuliginea infected cucumber plants exposed to compound treatment 1 day post infection assessed as disease curative activity at 0.78 mg/L measured after 1 or 2 weeks; type: functional
# [8] = system: Podosphaera fuliginea; assay: Fungicidal activity against Podosphaera fuliginea infected cucumber plants exposed to compound treatment 1 day post infection assessed as disease curative activity at 1.56 mg/L measured after 1 or 2 weeks; type: functional
# [9] = system: Blumeria graminis; assay: Fungicidal activity against Blumeria graminis infected compound pre-treated wheat plants assessed as disease preventive activity at 0.78 mg/L measured after 1 or 2 weeks; type: functional
# [10] = system: Blumeria graminis; assay: Fungicidal activity against Blumeria graminis infected compound pre-treated wheat plants assessed as disease preventive activity at 1.56 mg/L measured after 1 or 2 weeks; type: functional
# [11] = system: Blumeria graminis; assay: Fungicidal activity against Blumeria graminis infected compound pre-treated wheat plants assessed as disease preventive activity at 3.12 mg/L measured after 1 or 2 weeks; type: functional
# [12] = system: Blumeria graminis; assay: Fungicidal activity against Blumeria graminis infected compound pre-treated wheat plants assessed as disease preventive activity at 6.25 mg/L measured after 1 or 2 weeks; type: functional
# [13] = system: Podosphaera fuliginea; assay: Fungicidal activity against Podosphaera fuliginea infected cucumber plants exposed to compound treatment 1 day post infection assessed as disease curative activity at 3.12 mg/L measured after 1 or 2 weeks; type: functional
# [14] = system: Podosphaera fuliginea; assay: Fungicidal activity against Podosphaera fuliginea infected cucumber plants exposed to compound treatment 1 day post infection assessed as disease curative activity at 6.25 mg/L measured after 1 or 2 weeks; type: functional
# [15] = system: Blumeria graminis; assay: Fungicidal activity against Blumeria graminis infected wheat plants exposed to compound treatment 1 day post infection assessed as disease curative activity measured after 1 or 2 weeks; type: functional, organism-based
# [16] = system: Blumeria graminis; assay: Fungicidal activity against Blumeria graminis infected wheat plants exposed to compound treatment 1 day post infection assessed as disease curative activity at 1.56 mg/L measured after 1 or 2 weeks; type: functional
# [17] = system: Blumeria graminis; assay: Fungicidal activity against Blumeria graminis infected wheat plants exposed to compound treatment 1 day post infection assessed as disease curative activity at 0.78 mg/L measured after 1 or 2 weeks; type: functional
# [18] = system: Blumeria graminis; assay: Fungicidal activity against Blumeria graminis infected wheat plants exposed to compound treatment 1 day post infection assessed as disease curative activity at 3.12 mg/L measured after 1 or 2 weeks; type: functional
# [19] = system: Blumeria graminis; assay: Fungicidal activity against Blumeria graminis infected wheat plants exposed to compound treatment 1 day post infection assessed as disease curative activity at 6.25 mg/L measured after 1 or 2 weeks; type: functional
# [20] = system: Podosphaera fuliginea; assay: Fungicidal activity against Podosphaera fuliginea infected compound pre-treated cucumber plants assessed as disease preventive activity at 0.78 mg/L measured after 1 or 2 weeks; type: functional
# [21] = system: Podosphaera fuliginea; assay: Fungicidal activity against Podosphaera fuliginea infected compound pre-treated cucumber plants assessed as disease preventive activity at measured after 1 or 2 weeks; type: functional, organism-based
# [22] = system: Podosphaera fuliginea; assay: Fungicidal activity against Podosphaera fuliginea infected compound pre-treated cucumber plants assessed as disease preventive activity at 1.56 mg/L measured after 1 or 2 weeks; type: functional
# [23] = system: Podosphaera fuliginea; assay: Fungicidal activity against Podosphaera fuliginea infected compound pre-treated cucumber plants assessed as disease preventive activity at 3.12 mg/L measured after 1 or 2 weeks; type: functional
# [24] = system: Podosphaera fuliginea; assay: Fungicidal activity against Podosphaera fuliginea infected compound pre-treated cucumber plants assessed as disease preventive activity at 6.25 mg/L measured after 1 or 2 weeks; type: functional
# [25] = system: Blumeria graminis; assay: Fungicidal activity against Blumeria graminis infected compound pre-treated wheat plants assessed as disease preventive activity measured after 1 or 2 weeks; type: functional, organism-based
smiles,measurement,setting,value
CO/C=C(/C(=O)OC)c1ccccc1CO/N=C(\SC(C)C)c1cc(C(F)(F)F)cc(C(F)(F)F)c1,Activity,[1],85%
CO/N=C(/C(=O)OC)c1ccccc1CO/N=C(\SC)c1cc(C(F)(F)F)cc(C(F)(F)F)c1,Activity,[1],100%
same,Activity,[2],80%
CO/N=C(/C1=NOCCO1)c1ccccc1CO/N=C(\SC)c1cc(C(F)(F)F)cc(C(F)(F)F)c1,Activity,[3],10%
same,Activity,[4],20%
same,Activity,[1],100%
same,Activity,[2],100%
CCS/C(=N\OCc1ccccc1/C(=C\OC)C(=O)OC)c1cc(C(F)(F)F)cc(C(F)(F)F)c1,Activity,[1],85%
CO/N=C(/C(=O)OC)c1ccccc1CO/N=C(\N)c1cc(C(F)(F)F)cc(C(F)(F)F)c1,Activity,[1],30%
CN/C(=N\OCc1ccccc1/C(=N\OC)C(=O)OC)c1cc(C(F)(F)F)cc(C(F)(F)F)c1,Activity,[5],70%
same,Activity,[3],90%
same,Activity,[4],93%
same,Activity,[1],100%
same,Activity,[2],100%
CO/C=C(/C(=O)OC)c1ccccc1CO/N=C(/c1cc(C(F)(F)F)cc(C(F)(F)F)c1)[S+](C)[O-] (centres undefined),Activity,[1],70%
CO/C=C(/C(=O)OC)c1ccccc1Oc1cc(Oc2ccccc2C#N)ncn1 [AZOXYSTROBIN],EC50,[6],0.8 µg/mL
same,EC90,[6],2.1 µg/mL
same,Activity,[7],55%
same,Activity,[8],80%
same,Activity,[9],20%
same,Activity,[10],50%
same,Activity,[11],65%
same,Activity,[12],90%
same,Activity,[5],62%
same,Activity,[3],80%
same,Activity,[4],85%
same,Activity,[13],90%
same,Activity,[14],100%
same,EC50,[15],1.7 µg/mL
same,EC90,[15],5.9 µg/mL
same,Activity,[16],52%
same,Activity,[17],15%
same,Activity,[18],78%
same,Activity,[19],89%
same,Activity,[20],35%
same,EC50,[21],1.2 µg/mL
same,EC90,[21],4.5 µg/mL
same,Activity,[22],60%
same,Activity,[23],80%
same,Activity,[24],95%
same,EC50,[25],1.7 µg/mL
same,EC90,[25],7 µg/mL
same,Activity,[1],100%
same,Activity,[2],100%
CCO/C(=N\OCc1ccccc1/C(=C\OC)C(=O)OC)c1cc(C(F)(F)F)cc(C(F)(F)F)c1,Activity,[5],35%
same,Activity,[3],60%
same,Activity,[4],90%
same,Activity,[1],100%
same,Activity,[2],100%
CNC(=O)/C(=N/OC)c1ccccc1CO/N=C(\OC)c1cc(C(F)(F)F)cc(C(F)(F)F)c1,Activity,[1],90%
CN/C(=N\OCc1ccccc1/C(=C\OC)C(=O)OC)c1cc(C(F)(F)F)cc(C(F)(F)F)c1,Activity,[5],25%
same,Activity,[3],65%
same,Activity,[4],90%
same,Activity,[1],100%
same,Activity,[2],100%
CO/N=C(\C(=O)OC)c1ccccc1CO/N=C(\C)c1cccc(C(F)(F)F)c1,Activity,[5],75%
same,Activity,[3],98%
same,Activity,[4],100%
same,Activity,[1],100%
same,Activity,[2],100%
COC(=O)N(OC)c1ccccc1CO/N=C(\SC)c1cc(C(F)(F)F)cc(C(F)(F)F)c1,Activity,[3],30%
same,Activity,[4],65%
same,Activity,[1],90%
same,Activity,[2],90%
CO/N=C(/C1=NOCCO1)c1ccccc1CO/N=C(\OC)c1cc(C(F)(F)F)cc(C(F)(F)F)c1,EC50,[6],0.8 µg/mL
same,EC90,[6],1.5 µg/mL
same,Activity,[7],60%
same,Activity,[8],80%
same,Activity,[9],30%
same,Activity,[10],75%
same,Activity,[11],98%
same,Activity,[12],100%
same,Activity,[5],95%
same,Activity,[3],96%
same,Activity,[4],100%
same,Activity,[13],100%
same,Activity,[14],100%
same,EC50,[15],1 µg/mL
same,EC90,[15],2.4 µg/mL
same,Activity,[16],70%
same,Activity,[17],35%
same,Activity,[18],90%
same,Activity,[19],100%
same,Activity,[20],55%
same,EC50,[21],0.8 µg/mL
same,EC90,[21],1.6 µg/mL
same,Activity,[22],75%
same,Activity,[23],100%
same,Activity,[24],100%
same,EC50,[25],0.9 µg/mL
same,EC90,[25],2 µg/mL
same,Activity,[1],100%
same,Activity,[2],100%
CCS/C(=N\OCc1ccccc1/C(=N\OC)C(=O)OC)c1cc(C(F)(F)F)cc(C(F)(F)F)c1,Activity,[1],85%
CO/C=C(/C(=O)OC)c1ccccc1CO/N=C(/c1cc(C(F)(F)F)cc(C(F)(F)F)c1)S(C)(=O)=O,Activity,[1],70%
CO/N=C(/C(=O)OC)c1ccccc1CO/N=C(\OC)c1cc(C(F)(F)F)cc(C(F)(F)F)c1,Activity,[5],80%
same,Activity,[3],98%
same,Activity,[4],100%
same,Activity,[1],100%
same,Activity,[2],100%
CO/N=C(/C(=O)OC)c1ccccc1CO/N=C(\SC(C)C)c1cc(C(F)(F)F)cc(C(F)(F)F)c1,Activity,[1],85%
CNC(=O)/C(=N/OC)c1ccccc1CO/N=C(\SC)c1cc(C(F)(F)F)cc(C(F)(F)F)c1,Activity,[3],25%
same,Activity,[4],40%
same,Activity,[1],100%
same,Activity,[2],100%
COC(=O)N(OC)c1ccccc1CO/N=C(\OC)c1cc(C(F)(F)F)cc(C(F)(F)F)c1,Activity,[5],10%
same,Activity,[3],60%
same,Activity,[4],80%
same,Activity,[1],100%
same,Activity,[2],100%
CNC(=O)/C(=N/OC)c1ccccc1Oc1ccccc1 [METOMINOSTROBIN],Activity,[5],65%
same,Activity,[3],85%
same,Activity,[4],95%
same,Activity,[1],100%
same,Activity,[2],100%
CO/C=C(/C(=O)OC)c1ccccc1CO/N=C(\OC)c1cc(C(F)(F)F)cc(C(F)(F)F)c1,EC50,[6],0.8 µg/mL
same,EC90,[6],1.4 µg/mL
same,Activity,[7],56%
same,Activity,[8],92%
same,Activity,[9],20%
same,Activity,[10],60%
same,Activity,[11],81%
same,Activity,[12],100%
same,Activity,[5],98%
same,Activity,[3],100%
same,Activity,[4],100%
same,Activity,[13],100%
same,Activity,[14],100%
same,EC50,[15],1.5 µg/mL
same,EC90,[15],4.8 µg/mL
same,Activity,[16],50%
same,Activity,[17],20%
same,Activity,[18],82%
same,Activity,[19],94%
same,Activity,[20],59%
same,EC50,[21],0.8 µg/mL
same,EC90,[21],1.5 µg/mL
same,Activity,[22],80%
same,Activity,[23],100%
same,Activity,[24],100%
same,EC50,[25],1.2 µg/mL
same,EC90,[25],2.8 µg/mL
same,Activity,[1],100%
same,Activity,[2],100%
CCO/C(=N\OCc1ccccc1/C(=N\OC)C(=O)OC)c1cc(C(F)(F)F)cc(C(F)(F)F)c1,Activity,[5],15%
same,Activity,[3],50%
same,Activity,[4],80%
same,Activity,[1],100%
same,Activity,[2],100%
CO/C=C(/C(=O)OC)c1ccccc1CO/N=C(\SC)c1cc(C(F)(F)F)cc(C(F)(F)F)c1,Activity,[5],75%
same,Activity,[3],93%
same,Activity,[4],98%
same,Activity,[1],100%
same,Activity,[2],100%
CO/C=C(/C(=O)OC)c1ccccc1CO/N=C(\N)c1cc(C(F)(F)F)cc(C(F)(F)F)c1,Activity,[5],40%
same,Activity,[3],75%
same,Activity,[4],90%
same,Activity,[1],100%
same,Activity,[2],95%
